Measured values taken from patent publication US9888679B2, “Protection of progenitor cells and regulation of their differentiation” (Proteobioactives Pty Ltd, priority 2007, dated 2018).
Values joined by “and” are separate entries in the source; they are usually repeats but may differ in a detail not shown here. Equal entries are not always repeated.

Columns and labels:
Assay type in all cases: cell-based
[1] = test system: Primary human progenitor cells; assay: Progenitor cell proliferation, WST-1 assay; details: FIG. 4
Description: (§1) FIG. 4. The Effects of Pentosan Polysulfate (PPS) on Human Progenitor cell Proliferation. Primary human progenitor cells were cultured in 24 well plates in growth media supplemented with PPS at the indicated concentrations. At various time intervals (day 1, 3, 6), the growth media was removed and replaced with phenol red free media containing the tetrazolium salt WST-1 for 2 hours at 37° C./5% CO2. WST-1 is cleaved by mitochondrial dehydrogenase in viable cells to produce a formazan dye that can be detected using an ELISA plate reader at a wavelength of 450 nm. Absorbance at 450 nm for each time point is shown for all concentrations of PPS.
FIG. 20. […] At various time intervals (day 3 & 5), the growth media was removed and replaced with phenol red free media containing the tetrazolium salt WST-1 for 2 hours at 37° C./5% CO2. Absorbance at 450 nm for each time point is shown for all concentrations of PPS and HA.
as §1, with “Primary” for “FIG. 4. The Effects of Pentosan Polysulfate (PPS) on Human Progenitor cell Proliferation. Primary”

[2] = test system: human progenitor cells; assay: Type II collagen immunostaining of micromass cultures, 10 days; details: FIG. 18
Description: FIG. 18. A: Bar graph showing the Pentosan Polysulfate (PPS) concentration dependent stimulation of type II collagen production by human progenitor cells in micromass cultures for 10 days as determined by scanning and digital analysis of the immuno stained micromass cultures shown in B. (see text for details).
Micromass cultures of progenitor cells were established in 24-well culture plates at a starting density of 8×10^4 cells/micromass in 1 ml of DMEM (+10% FBS) with/without various concentrations of Pentosan Polysulfate as described above. On Day-5 and Day-10 of culture, media was removed and cultures were fixed with Histochoice MB (Amresco, Solon, Ohio, USA) for 20-30 min at RT. The fixed cultures were washed twice in PBS (5 min each time); […] then washed in PBS for 5 min. […]. After rinsing, first with a gentle stream of PBS, followed by washing 3 times (5 min each time) with PBS, the wells were blocked with […] rinsing with a gentle stream of PBS then 3×washing (5 min each time) with PBS, to each micromass culture was added 200 μl of 1× (BCIP/Buffer+NBT) and the plates incubated in the reaction was stopped when the purple color first became established in the section by washing in running water. Plates and wells were then photographed with a digital camera and the images analysed by using Image J® software (http://rsb.info.nih.gov/ij/) on a personal computer.

[3] = test system: Murine Progenitor Cell (C3H10T1/2); assay: Proteoglycan biosynthesis (35S-GAG) and DNA content in monolayer cultures; details: for biosynthesis of proteoglycans: all concentrations of PPS
Description: FIG. 9. Concentration dependent effects of Pentosan Polysulfate (PPS) on Murine Progenitor Cell (progenitor cells C3H10T1/2) biosynthesis of Proteoglycans (PGs) and DNA content when grown in monolayer cultures. Data shown=Means±SD.
Murine Progenitor cells (cell lines C3H10T1/2 or ATDC5) purchased from RIKEN Cell Bank (Tsukuba, Japan) or human immunoselected Stro-1+ Progenitor cells (Mesoblast Ltd, Melbourne, Australia) were seeded into 50 mL plastic culture flasks containing 1:1 high glucose DMEM/Ham's F-12 medium (Invitrogen) supplemented with 10% FBS (Sigma) and incubated at 37° C., in 5% CO2. After confluence was reached, progenitor cells were released by trypsinization and harvested by centrifugation. Cells were inoculated to 96-well or 24-well plates at a density of 3×10^4 cells or 2×10^5 cells per well. After 48-hour incubation at 37° C., 5% CO2 confluent monolayers were normally established. The medium was then changed to defined medium, which contained different concentrations of PPS with and without rhNC4 and 5 μCi/ml of ^35S—H2SO4 (PerkinElmer, USA). The experiments were generally terminated after 48 hours incubation when proteoglycan biosynthesis was determined by measuring the incorporation of ^35SO4 into the glycosaminoglycans (^35S-GAGs) as described below.
(A) 96-well plates: Cultures were subjected to proteolytic digestion with papain to release glycosaminoglycans. The papain stock solution used contained 2.5 mg/ml papain (Sigma), 7.9 mg/ml cysteine-HCl (Sigma) in papain digest buffer (0.1M NaAc, 5 mM EDTA, pH6.0). 50 μl of papain stock solution was added to each well. The plate was sealed using plastic sheeting and incubated at 65° C. for 2 hours. […]
The ^35SO4-GAGs in the remained solution (200 ul) were precipitated with Cetyl Pyridinium Chloride (CPC) (Sigma). […] Following addition of 3 ml scintillation liquid and vortexing the radioactivity of the ^35S-GAG-CPC complexes were in the samples were measured by scintillation counting (PerkinElmer, USA) and recorded as DPM/sample. The data then was then normalised for DNA and expressed as ^35-S-GAGs/μg DNA.
(B) 24-well plates: After 48 hours incubation in the defined media, the media per well (containing soluble ^35S-labelled proteoglycans) was separated from the cells and transferred to a 2.0 ml microfuge tube. […] The 35S-GAG-CPC complexes collected through the fibre filter and the radioactivity of 35S-GAG was measured using the liquid scintillation analyser as describe above. The cells were extracted with the RNA reagent and aliquots used to determine gene expression and/or the DNA content was measured by the fluorometric assay and the results expressed as ^35-S-GAGs/μg DNA. […]

## pentosan polysulfate [PPS]
[1]; 1-5 micrograms/mL, monolayer
  cell division (WST-1 cleavage assay): Marked stimulation of cell division
[1]; day 6, PPS in excess of 1 μg/ml, p<0.01, ANOVA
  proliferation (WST-1, absorbance at 450 nm): statistically significant increase in proliferation
[2]; 0.5-10 μg/ml, 10 days
  Type II Collagen production: Increased Type II Collagen production
[2]; 1-10 micrograms/mL for 10 days
  type II collagen staining: intense type II collagen staining
[2]; 10 day micromass
  concentration giving maximum type II collagen levels: 5 µg/mL
[3]; FIG. 9
  PPS concentration best with regard to DNA content: 5 μl/ml and 10 μl/ml
  PPS concentration best with regards to PG synthesis: 10 μl/ml
  biosynthesis of proteoglycans: increased
[3]; FIG. 9, listed as polysulfated polysaccharides
  biosynthesis of proteoglycans: chondrogenic promoting effect
